Test [1] concerns the target T1, S2R (Rattus norvegicus, UniProt Q5U3Y7).
T1 construct: [^3H]-DTG on rat liver masking with ( +)-Pentazocine according to the generally accepted protocol; from tissue; host or cells: rat liver
T1 sequence (Q5U3Y7 1-176): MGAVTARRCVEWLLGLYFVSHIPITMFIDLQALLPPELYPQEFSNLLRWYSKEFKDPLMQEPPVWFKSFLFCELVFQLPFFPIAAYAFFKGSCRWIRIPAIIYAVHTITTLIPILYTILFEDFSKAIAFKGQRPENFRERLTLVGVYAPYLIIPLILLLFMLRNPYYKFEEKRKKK
As to conditions: [3H]-DTG, rat liver, masking with (+)-Pentazocine, cited from earlier work.

Test [2] relates to SARS-CoV-2. Put plainly: Anti-SARS-CoV-2 activity, detection of viral genomes by RT-qPCR on infected cells. The class given is cell-based. Particulars: for anti-SARS-CoV-2 activity in words: Vero E6 cells; for fold reduction in anti-SARS-CoV-2 activity: relative to PB28, Vero E6 cells. (In general: Real-time PCR tracks product formation cycle by cycle.)
In test [3] the target is T2, S1R (Cavia porcellus, UniProt Q60492).
T2 construct: [^3H]-( +)-Pentazocine on guinea pig brain according to the generally accepted protocol; from tissue; host or cells: guinea pig brain
Particulars: cited from earlier work.

The target of test [4] is T1, S2R. As to the kind of experiment: S2R radioligand binding assay, [3H]-DTG on rat liver masking with (+)-Pentazocine. As to conditions: Table 1, compound 6 (no reference cited).
Test [5] addresses T2, S1R. As to the kind of experiment: S1R radioligand binding assay, [3H]-(+)-Pentazocine on guinea pig brain. As to conditions: Table 1, compound 6 (no reference cited).
Test [6] concerns SARS-CoV-2. As to conditions: read-out: IC90 anti-SARS-CoV-2 activity in vitro; cited from earlier work.
The mark [7] stands for this setting: Table 1, mean of three experiments in duplicate.
The mark [8] stands for this setting: Table 1, RT-qPCR of viral genomes, Vero E6 cells infected with SARS-CoV-2, one representative experiment of at least three.
Where [9] appears, read: Table 1, [3H]-(+)-Pentazocine, guinea pig brain, mean of three experiments in duplicate, read-out: Ki nM S1R.
Where [10] appears, read: Table 1, RT-qPCR of viral genomes, Vero E6 cells infected with SARS-CoV-2, one representative experiment of at least three, read-out: IC50 (μM) SARS-CoV-2.
Where [11] appears, read: Table 3, RT-qPCR of viral genomes, Vero E6 cells infected with SARS-CoV-2, read-out: IC50 (μM) SARS-CoV-2.
[12] abbreviates: Table 3, [3H]-(+)-Pentazocine, guinea pig brain, read-out: Ki nM S1R.
[13] abbreviates: Table 4, RT-qPCR of viral genomes, Vero E6 cells infected with SARS-CoV-2.
[14] abbreviates: Table 4, [3H]-(+)-Pentazocine, guinea pig brain, read-out: Ki Nm S1R.

Like-named read-outs stand apart in the source and are kept apart here.

T2 sequence (Q60492 whole entry): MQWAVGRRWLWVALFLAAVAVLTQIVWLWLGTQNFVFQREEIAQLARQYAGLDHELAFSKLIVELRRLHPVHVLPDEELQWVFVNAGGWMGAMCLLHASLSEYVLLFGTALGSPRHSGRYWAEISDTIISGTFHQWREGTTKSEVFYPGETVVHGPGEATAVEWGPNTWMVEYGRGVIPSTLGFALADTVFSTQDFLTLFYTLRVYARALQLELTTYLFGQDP

As to `COc1cccc2c1CCCC2N1CCN(C2CCCCC2)CC1` (racemic) [Compound 1], the Ki at S2R [1] (setting [7]) is 7.9 nM; at S1R [3] (setting [9]) it was 0.4 nM. Moreover, the “IC50 (μM) SARS-CoV-2” value with SARS-CoV-2 [2] (setting [8]) is “NOT ACTIVE”. Further, the “anti-SARS-CoV-2 activity in words” value with SARS-CoV-2 [2] is “loss of activity”.

As for `COc1cccc2c1CCCC2CN1CCN(C2CCCCC2)CC1` (racemic) [Compound 2], the figures for the inhibitory constant (Ki) at S2R [1] (setting [7]) and on S1R [3] (setting [9]) were 16.4 nM and 0.31 nM, respectively. Moreover, in the test with SARS-CoV-2 [2] (setting [10]), the IC50 was determined as 5.9 µM. Also, the “fold reduction in anti-SARS-CoV-2 activity” value (“fold reduction” below) in the test on SARS-CoV-2 [2] came out at 20 fold.

As for `COc1cccc2c1CCCC2CCN1CCN(C2CCCCC2)CC1` (racemic) [Compound 3], the Ki on S2R [1] (setting [7]) was 21.1 nM; at S1R [3] (setting [9]), 1.57 nM. Besides, the half-maximal inhibitory concentration (IC50) in the test with SARS-CoV-2 [2] (setting [10]) was 12.6 µM. The “fold reduction” value in the test with SARS-CoV-2 [2] was determined as 40 fold.

On to `COc1cccc2c1CCCC2CCCCN1CCN(C2CCCCC2)CC1` (racemic) [Compound 4], for which the Ki on S2R [1] (setting [7]) is 3.58 nM. For the same compound, in the test on SARS-CoV-2 [2] (setting [10]), the concentration for half-maximal inhibition (IC50) stood at 0.32 µM.

For `COc1cccc2c1CCCC2CCCCCN1CCN(C2CCCCC2)CC1` (racemic) [Compound 5], the Ki on S2R [1] (setting [7]) is 0.35 nM; on S1R [3] (setting [9]) it was 1.52 nM. In the test on SARS-CoV-2 [2] (setting [10]), the half-inhibitory concentration (IC50) is 0.19 µM.

`COc1cccc2c1CCCC2CCCCCCN1CCN(C2CCCCC2)CC1` (racemic) [Compound 6]: the Ki on S2R [4] was 103 nM; on S1R [5], 3.07 nM. Besides, the IC50 in the test with SARS-CoV-2 [2] (setting [10]) worked out at 1.32 µM. In addition, in the test with SARS-CoV-2 [2], the “fold reduction” value is “threefold less potent”.

As for `c1ccc2c(c1)CCCC2CCCN1CCN(C2CCCCC2)CC1` (racemic) [Compound 7], the inhibition constant Ki on S2R [1] (setting [7]) is 0.68 nM; at S1R [3] (setting [9]), 0.61 nM. Also, in the test with SARS-CoV-2 [2] (setting [10]), the IC50 came to 0.438 µM.

Regarding `c1ccc2c(c1)CCCC2CCCCN1CCN(C2CCCCC2)CC1` (racemic) [Compound 8], on S2R [1] (setting [7]), the Ki is 14.6 nM. The IC50 in the test with SARS-CoV-2 [2] (setting [10]) stood at 0.317 µM.

On to `c1ccc2c(c1)CCCC2CCCCCN1CCN(C2CCCCC2)CC1` (racemic) [Compound 9], for which the Ki at S2R [1] (setting [7]) was 7.85 nM; on S1R [3] (setting [9]), 1.45 nM. The concentration for half-maximal inhibition (IC50) with SARS-CoV-2 [2] (setting [10]) came to 0.19 µM.

As for `COc1ccc2c(c1)CCCC2CCCN1CCN(C2CCCCC2)CC1` (racemic) [Compound 10], the inhibition constant Ki is 5.42 nM at S2R [1] (setting [7]); 0.36 nM at S1R [3] (setting [9]); 0.38 nM on S1R [3] (as quoted in the text of the docking section, read-out: Ki (S1R)). In the test on SARS-CoV-2 [2] (setting [10]), the IC50 turned out to be 0.47 µM.

As to `Oc1cccc2c1CCCC2CCCN1CCN(C2CCCCC2)CC1` (racemic) [Compound 15], on S2R [1] (setting [7]), the Ki is 2.66 nM. For the same compound, the “IC50 (μM) SARS-CoV-2” value in the test on SARS-CoV-2 [2] (setting [8]) is “NOT ACTIVE”. For the same compound, the “anti-SARS-CoV-2 activity in words” value in the test with SARS-CoV-2 [2] is “complete loss of antiviral activity”.

For the compound `Oc1ccc2c(c1)CCCC2CCCN1CCN(C2CCCCC2)CC1` (racemic) [Compound 16], the figures for the Ki at S2R [1] (setting [7]) and on S1R [3] (setting [9]) were 1.12 nM and 0.69 nM, respectively. In addition, in the test on SARS-CoV-2 [2] (setting [8]), the “IC50 (μM) SARS-CoV-2” value is on record as “NOT ACTIVE”. Besides, in the test on SARS-CoV-2 [2], the “anti-SARS-CoV-2 activity in words” value was “complete loss of antiviral activity”.

In the case of `COc1cccc2c1CCCC2CCCN1CCN(C)CC1` (racemic) [Compound 23], the Ki at S2R [1] (Table 3) is 663 nM; at S1R [3] (setting [12]), 17.8 nM. Further, the concentration for half-maximal inhibition (IC50) with SARS-CoV-2 [2] (setting [11]) came to 5.78 µM. Moreover, in the test on SARS-CoV-2 [2], the “fold reduction” value is 20 fold.

Regarding `CCCN1CCN(CCCC2CCCc3c(OC)cccc32)CC1` (racemic) [Compound 24], the Ki is 42.5 nM on S2R [1] (Table 3) and 9.6 nM at S1R [3] (setting [12]). For the same compound, in the test on SARS-CoV-2 [2] (setting [11]), the half-maximal inhibitory concentration (IC50) was determined as 2.26 µM. In the test on SARS-CoV-2 [2], the “fold reduction” value turned out to be 8 fold.

In the case of `CCC(CC)N1CCN(CCCC2CCCc3c(OC)cccc32)CC1` (racemic) [Compound 25], the inhibitory constant (Ki) at S2R [1] (Table 3) is 12.7 nM; on S1R [3] (setting [12]), 12 nM. Moreover, the “IC50 (μM) SARS-CoV-2” value in the test on SARS-CoV-2 [2] (Table 3, RT-qPCR of viral genomes, Vero E6 cells infected with SARS-CoV-2) is on record as “NOT ACTIVE”. In addition, the “anti-SARS-CoV-2 activity in words” value in the test on SARS-CoV-2 [2] is “no anti-SARS-CoV-2 activity”.

Consider `COc1cccc2c1CCC[C@H]2CCCN1CCN(C2CCCCC2)CC1` [( +)-S-PB28], for which the inhibition constant Ki on S2R [1] (setting [7]) is 1.18 nM. Moreover, in the test on SARS-CoV-2 [2] (setting [10]), the 50% inhibitory concentration (IC50) is 0.455 µM.

Turning to `COc1cccc2c1CCC[C@@H]2CCCN1CCN(C2CCCCC2)CC1` [(-)-R-PB28], the inhibition constant Ki at S2R [1] (setting [7]) is 0.49 nM. In the test with SARS-CoV-2 [2] (setting [10]), the IC50 worked out at 0.309 µM.

`c1ccc2c(CCCN3CCN(C4CCCCC4)CC3)cccc2c1` [Compound 11]: the Ki is 0.69 nM on S2R [1] (setting [7]) and 2.16 nM on S1R [3] (setting [9]). The IC50 in the test with SARS-CoV-2 [2] (setting [10]) was determined as 0.94 µM.

In the case of `c1ccc2c(CCCCCN3CCN(C4CCCCC4)CC3)cccc2c1` [Compound 12], the inhibition constant (Ki) was 0.57 nM at S2R [1] (setting [7]) and 2.4 nM at S1R [3] (setting [9]). Besides, the half-maximal inhibitory concentration (IC50) with SARS-CoV-2 [2] (setting [10]) was 0.52 µM.

For `COc1cccc2c(CCCN3CCN(C4CCCCC4)CC3)cccc12` [Compound 13], the Ki on S2R [1] (setting [7]) is 9.24 nM. Further, in the test with SARS-CoV-2 [2] (setting [10]), the 50% inhibitory concentration (IC50) was found to be 0.306 µM.

`COc1ccc2c(CCCN3CCN(C4CCCCC4)CC3)cccc2c1` [Compound 14]: the inhibitory constant (Ki) at S2R [1] (setting [7]) is 9.02 nM; on S1R [3] (setting [9]), 3.16 nM. Further, in the test with SARS-CoV-2 [2] (setting [8]), the “IC50 (μM) SARS-CoV-2” value is “NOT ACTIVE”. Further, in the test on SARS-CoV-2 [2], the “anti-SARS-CoV-2 activity in words” value is “complete loss of activity”.

In the case of `Oc1ccc2c(CCCN3CCN(C4CCCCC4)CC3)cccc2c1` [Compound 17], the Ki on S2R [1] (setting [7]) is 26.4 nM; on S1R [3] (setting [9]), 6.78 nM. Further, the “IC50 (μM) SARS-CoV-2” value in the test with SARS-CoV-2 [2] (setting [8]) is “NOT ACTIVE”. The “anti-SARS-CoV-2 activity in words” value with SARS-CoV-2 [2] is on record as “complete loss of antiviral activity”.

As to `Oc1ccc2cccc(CCCN3CCN(C4CCCCC4)CC3)c2c1` [Compound 18], the Ki is 11.8 nM at S2R [1] (setting [7]) and 5.48 nM at S1R [3] (setting [9]). Moreover, the “IC50 (μM) SARS-CoV-2” value with SARS-CoV-2 [2] (setting [8]) is recorded as “NOT ACTIVE”. In the test on SARS-CoV-2 [2], the “anti-SARS-CoV-2 activity in words” value is given as “complete loss of antiviral activity”.

For the compound `COc1cccc2c1CCCC2CCCN1CCN(C2CCCCC2)CC1` (centres unmarked) [PB28, 1-Cyclohexyl-4-[3-(5-methoxy-1,2,3,4-tetrahydronaphthalen-1-yl)propyl]piperazine, reference compound], the concentration for an effect of 90% (IC90) with SARS-CoV-2 [6] is 280 nM. In addition, in the test on SARS-CoV-2 [2] (Severe acute respiratory syndrome coronavirus 2, Vero C1008, read-out: IC50 (μM) SARS-CoV-2), the IC50 worked out at 0.299 µM.

Consider `COc1ccc2c(c1)CCCC2CCCCN1CCC(C)CC1` (centres unmarked) [PB190, reference compound], for which the Ki at S2R [1] (Table 4) was 36.3 nM; at S1R [3] (setting [14]) it was 0.42 nM. The “IC50 (μM) SARS-CoV-2” value in the test on SARS-CoV-2 [2] (setting [13]) is on record as “NOT ACTIVE”. For the same compound, the “anti-SARS-CoV-2 activity in words” value in the test on SARS-CoV-2 [2] was “did not demonstrate any antiviral effect”.

Regarding `COc1ccc2c(CCCCN3CCC(C)CC3)cccc2c1` [PB212, reference compound], the inhibition constant Ki at S2R [1] (Table 4) is 17.9 nM; on S1R [3] (setting [14]), 0.03 nM. Further, the “IC50 (μM) SARS-CoV-2” value in the test on SARS-CoV-2 [2] (setting [13]) is on record as “NOT ACTIVE”. In the test with SARS-CoV-2 [2], the “anti-SARS-CoV-2 activity in words” value is recorded as “did not demonstrate any antiviral effect”.

As usually defined, the Ki is a measure of affinity in units of concentration, obtained from inhibition or displacement. Usually IC50 stands for the concentration needed to halve the response being measured. As usually defined, the IC90 is the point of the concentration-response curve where the effect stands at 90%.

Source of the values: article PMC10406941 (Scientific Reports, 2023).
